Test results as given in patent US11911406B2, “PH-responsive polymer-drug conjugates for enhanced antibacterial efficacy” (priority 2020, dated 2024).

Tests used:
[1] = Streptomycin release kinetics (dialysis, HPLC); assay type: physicochemical
Protocol: Streptomycin release kinetics. […] The bags were put into the PBS buffers with the corresponding pH, and incubated in a 37° C. shaker. At different time intervals, 100 μL sample outside the dialysis bag was collected for HPLC analysis.

[2] = test system: MRSA biofilm; experiment: Biofilm inhibition assay (crystal violet); assay type: cell-based, S. aureus
Protocol: Biofilm inhibition assays. Exponentially growing bacteria were inoculated into 96 well plates (1×10^4 cell/well) containing MHB broth with 2% (v/w) glucose, incubated under stationary conditions at 37° C. for one day. After biofilm formation, the media was discarded and the plates were washed with PBS to remove the planktonic bacteria. Fresh NMB broth containing serially diluted free streptomycin or PDC were added to the plates and incubated at 37° C. for another 24 h. The media in each well was then removed, and the plates were washed carefully with PBS for 1 time. The biofilm in each well was fixed with 95% ethanol for 15 min and stained with 0.1% crystal violet for 15 min. After washing with Milli-Q water for three times, 33% v/v acetic acid (100 μL/well) was added to solubilize the crystal violet staining. OD 560 in each well was read to determine the biofilm formation. The biofilm formed as described above was also stained with acridine orange and Cy5 labeled PDC, and monitored by CLSM to observe the PDC penetration.

[3] = test system: P. aeruginosa ATCC 27853; experiment: Checkerboard assay, FIC index; assay type: cell-based
Protocol: (§1) Fractional inhibitory concentration (FIC) measurement. The synergy between the cationic polymer and streptomycin was assessed by checkerboard assays. The two antibacterial components were mixed in a 96-well plate with serial two-dimensional dilutions. Bacteria were inoculated in each well of the plate and their growth, reflected by the OD600 value, were monitored. The synergy effect was evaluated by calculating the FIC index according to the formula below:
(§2) [formula] MICA^Comb and MICB^Comb indicate the MICs of the two components in combination. The interactions between the two components are defined according to standard criteria of considering FIC≤0.5 as synergistic; 0.5<FIC≤1 as additive; 1<FIC≤4 as indifference; and FIC>4 as antagonism.

[4] = test system: E. coli ATCC 25922; experiment: Checkerboard assay, FIC index; assay type: cell-based
Protocol: as §1, §2

[5] = test system: methicillin-resistant S. aureus (MRSA, ATCC 33591); experiment: Checkerboard assay, FIC index; assay type: cell-based
Protocol: as §1, §2

[6] = test system: E. coli ATCC 25922; experiment: Live/Dead bacterial staining assay (AO/EB); assay type: cell-based; details: 0.5 h and 3 h
Protocol: Live/Dead bacterial staining assay. Exponentially growing bacteria (E. coli ATCC 25922) were collected by centrifugation at 8000 rpm for 5 min, washed with saline and diluted to OD 600 value of 0.5. The bacterial suspensions were incubated with different treatments at 37° C. for 0.5 h and 3 h, and then washed with saline and stained by acridine orange (10 μg/mL) and ethidium bromide (EB, […]) solution for 15 min. Afterward, the bacteria were collected via centrifugation, washed with saline for 2 times, resuspended in 70% glycerol and spread on glass slides. The live/dead bacteria were observed by a confocal laser scanning microscope (CLSM).

[7] = test system: HEK 293 human embryonic kidney cells; experiment: Cell viability test (MTT cytotoxicity); assay type: cell-based; details: 48 h, row marked pH 7.4
Protocol: Cell viability test. Cytotoxicity of different components was tested through MTT assays. HEK 293 human embryonic kidney cells were seeded onto a 96-well plate (1×10^4 cells/well) and cultured overnight. The cells were then treated with various polymers or PDCs with serial dilutions for 48 h and their viability was measured by a standard MTT assay. Data were collected by monitoring the difference between the absorbance at 560 nm and 650 nm using a GloMax-Multi Microplate Multimode Reader (Promega, Wis., USA).

[8] = test system: E. coli, MRSA and P. aeruginosa; experiment: Scanning electron microscopy (SEM) observation; assay type: cell-based; details: pH 6.0, 3 h
Protocol: Scanning electron microscopy (SEM) observation. Bacteria suspensions were prepared as above and treated with PDC at different pH for 3 h, washed with saline and fixed with 2.5% glutaraldehyde at 4° C. overnight. The samples were washed with Milli-Q water and dehydrated with a series of graded ethanol solutions (50%, 75%, 90%, 100%, each for 5 min). After drying for 1 day, the samples were coated with platinum and observed by SEM (Zeiss/LEO 1530).

[9] = test system: P. aeruginosa ATCC 27853; experiment: Mouse lung infection model; assay type: in vivo, ICR mice
Protocol: Mouse lung infection model. […] In another experiment of monitoring the mice survival for the lung infection model, the P. aeruginosa infected mice were given 2 treatments (1 h and 8 h after the infection) and their survival was observed using Kaplan-Meier curves (n=5).

[10] = test system: E. coli ATCC 25922; experiment: Mouse thigh infection model; assay type: in vivo, ICR mice; details: single i.v. injection 1 h after infection, equivalent of 5 mg streptomycin/kg, thighs at 24 h
Protocol: Mouse thigh infection model. ICR mice (female, 22-24 g, Charles River) were intramuscularly inoculated with E. coli ATCC 25922 (2×10^8 CFU/mL in saline, 0.05 mL bacteria suspension per thigh) on their both thighs and randomly divided into 4 groups (n=3). The mice were treated with PBS, free streptomycin (5 mg/kg), […] through i.v. injection 1 h after the infection. 24 h after the inoculation, animals were euthanized by CO2 asphyxiation and thigh muscles were collected and homogenized in 5 mL cold PBS with glass homogenizer. The homogenates in the amount of 0.1 mL were used for serial tenfold dilutions and spread onto nutrient agar plate for CFU determination.

[11] = test system: MRSA in Raw 264.7 macrophage; experiment: Antibacterial activity for intracellular infection; assay type: cell-based; details: Raw 264.7 infected with S. aureus, pH 7.4 and 6.0, 1 day
Protocol: (§3) Antibacterial activity for intracellular infection. The antibacterial activity for intracellular infection was tested following the previous report. Briefly, macrophage Raw 264.7 cells were seeded in 96-well plate at a density of 1×10^4 cell/swell overnight and infected with MRSA or P. aeruginosa at a ratio of 10-20 bacteria per macrophage in FBS free RPMI 1640 medium. After 3 h incubation, the cells were washed and cultured in 1640 medium containing 10% FBS and 50 μg/mL gentamycin for one day to prevent the growth of extracellular bacteria. Then the macrophages were treated with free streptomycin or PDC for another day and lysed with Milli-Q water supplemented with 0.1% Triton-X. The cell lysates were serially diluted and the CFU in each well was determined by plating on MHB agar plates.

[12] = test system: P. aeruginosa in Raw 264.7 macrophage; experiment: Antibacterial activity for intracellular infection; assay type: cell-based; details: Raw 264.7 infected with P. aeruginosa, pH 7.4 and 6.0, 1 day
Protocol: as §3

Hex-Cys-Cys-DET-strep-DMA [Neutralized PDC]
streptomycin release ([1]; pH 6.0, within 48 h): about 70%
streptomycin release ([1]; pH 7.4, at 48 h): about 20%
biofilm removed ([2]; equivalent of 32 μg/mL streptomycin, acidic conditions): More than 90%
biofilm eliminated ([2]; streptomycin concentration 16 μg/mL): 75%
FICI of the two components in the PDC (tethered together) [3]: 0.306
FICI of the two components in the PDC (tethered together) [4]: 0.362
FICI of the two components in the PDC (tethered together) [5]: 0.475
bactericidal effect / EB staining, in words [6]: much delayed and pH-dependent bactericidal effect
HEK293 IC50 [7]: >2000 µg/mL
bacterial membrane morphology (SEM), in words [8]: severe membrane disruption and deformation
survival, in words ([9]; 2 i.v. injections (1 h and 8 h after the infection)): all of the PDC treated mice survived
bacterial burden in lungs, in words ([9]; single i.v. injection 1 h after infection, CFU per lung at 12 h): lowest bacterial burden in their lungs
reductions in CFU [10]: more than 4 orders
antibacterial efficacy on intracellular bacteria (CFU), in words [11]: enhanced the antibacterial efficacy
antibacterial efficacy on intracellular bacteria (CFU), in words [12]: enhanced the antibacterial efficacy
